The record followed here is ChEMBL document CHEMBL1146550, “Sesquiterpenoid derivatives from Gonospermum elegans and their cytotoxic activity for HL-60 human promyelocytic cells” (J Nat Prod, 2003).

In assay [1] the test system is HL-60. Description: Antiproliferative activity against human HL60 cells after 24 hrs by MTT assay. It is filed as functional, cell-based. Conditions: for IC50: HL-60, 24 h.
The test system of assay [2] is HL-60. Description: Induction of apoptosis in human HL60 cells assessed as PARP cleavage at 0.1 to 1 uM after 8 hrs by SDS-PAGE. Format: functional, cell-based.
Assay [3] relates to HL-60. Description: Induction of apoptosis in human HL60 cells assessed as […] DNA fragmentation at 1 uM after 12 hrs by agarose gel electrophoresis. It is filed as functional, cell-based.
Assay [4] deals with HL-60. Description: Induction of apoptosis in human HL60 cells assessed as apoptotic cells after 12 hrs by Hoechst staining-based fluorescence microscopy. Format: functional, cell-based.
Assay [5] deals with HL-60. The assay can be described thus: Induction of apoptosis in human HL60 cells assessed as apoptotic cells at 1 uM after 12 hrs by Hoechst staining-based fluorescence microscopy. Format: functional.
The subject of assay [6] is HL-60. Description: Induction of apoptosis in human HL60 cells assessed as peripheral nuclear chromatin condensation at 0.1 to 3 uM after 12 hrs by Hoechst staining-based fluorescence microscopy. It is filed as functional, cell-based.
Assay [7] has as its system HL-60. The assay can be described thus: Induction of apoptosis in human HL60 cells assessed as PARP cleavage at 0.1 to 1 uM after 12 hrs by SDS-PAGE. Format: functional, cell-based.
For assay [8], the system named is HL-60. The assay can be described thus: Induction of apoptosis in human HL60 cells assessed as […] DNA fragmentation at 10 uM after 12 hrs by agarose gel electrophoresis. It is filed as functional, cell-based.
Assay [9] has as its system HL-60. The assay can be described thus: Induction of apoptosis in human HL60 cells assessed as PARP cleavage at 1 to 10 uM after 12 hrs by SDS-PAGE. Format: functional, cell-based.
Assay [10] deals with HL-60. Description: Induction of apoptosis in human HL60 cells assessed as apoptotic cells at 10 uM after 12 hrs by Hoechst staining-based fluorescence microscopy. Format: functional.
In assay [11] the test system is HL-60. The assay can be described thus: Induction of apoptosis in human HL60 cells assessed as PARP cleavage at 1 to 10 uM after 8 hrs by SDS-PAGE. Format: functional, cell-based.

Calls of active or inactive are those of the source. No cut-off for these calls is given here.

As to `C=C1C(=O)O[C@H]2C[C@@]3(C)[C@H](C(=C)CC[C@@H]3O)[C@@H](O)[C@H]12` [ELEGALACTONE A], the 50% inhibitory concentration (IC50) (usually the point on the concentration scale where inhibition reaches its midpoint) with HL-60 [1] is 55.1 µM.
In the case of `C=C1CC[C@H](OC(C)=O)/C(C)=C\[C@@H]2OC(=O)C(=C)[C@H]2[C@H](OC(C)=O)C1=O`, the result with HL-60 [2], with HL-60 [3], in the assay on HL-60 [6] and in the assay with HL-60 [7] was Active. In addition, the results for the Activity result with HL-60 [4], in the assay with HL-60 [5] and in the assay with HL-60 [1] were “Dose-dependent effect”, 25.9% and “Dose-dependent effect”, respectively. Further, the midpoint of inhibition in the assay with HL-60 [1], the IC50, lay at 0.25 µM.
For `C=C1C(=O)O[C@H]2C[C@]3(C)[C@@H](OC(C)=O)CCC(=C)[C@@H]3[C@@H](OC(C)=O)[C@H]12`, the result in the assay with HL-60 [8], with HL-60 [9] and in the assay with HL-60 [11] was Active. For the same compound, the Activity result in the assay with HL-60 [4] is “Dose-dependent effect”; in the assay with HL-60 [1], “Dose-dependent effect”; in the assay with HL-60 [10], 14.3%. In addition, the IC50 in the assay with HL-60 [1] amounted to 5.3 µM.
